Columns and labels:
UM-SCC-49 cells = test: Annexin V assay with and without irradiation; format: cell-based, human; details: LCMT-li, irradiation or both
Experimental: (§1) Head and neck cancer (HNC) cell lines were used for further analyses. Cells were seeded in 60 mm dishes at a density of 8×10^5 cells/dish. After 24 hours, cells were treated with LCMT-li, radiotherapy or both. Control cells were given fresh media. Because radiosensitization was seen between 2.5-10 μM in SCC-15, SCC-25, UM-SCC-49, and UM-SCC-69, irradiated cells were treated with or without 10 μM LCMT-li as described. Twenty-four hours after treatment, cells were lifted with Accutase and washed twice with PBS (pH 7.4) with 10% FBS. Cells were resuspended in annexin V binding buffer (10 mM HEPES (pH 7.4), 140 mM NaCl and 2.5 mM CaCl2)) and labeled with FITC-anti-Annexin V and 7-AAD (Biolegend, San Diego, California, FITC Annexin V Apoptosis Detection Kit with 7-AAD, catalog #640922). Cell surface annexin V expression was assessed immediately with flow cytometry. Annexin V assays were performed with 12 replicates, 104 cells/replicate.

SCC-15 cells = test: Annexin V assay with and without irradiation; format: cell-based, human
Experimental: as §1

SCC-25 cells = test: Annexin V assay with and without irradiation; format: cell-based, human; details: alone or in combination with irradiation
Experimental: as §1

UM-SCC-14a cells = test: Annexin V assay with and without irradiation; format: cell-based, human; details: LCMT-li combined with irradiation
Experimental: as §1

UM-SCC-12 cells = test: Annexin V assay with and without irradiation; format: cell-based, human
Experimental: as §1

UM-SCC-69 cells = test: Annexin V assay with and without irradiation; format: cell-based, human
Experimental: as §1

HS-5 cells = test: Cytotoxicity assay (calcein-AM); format: cell-based; details: HS-5, 48 hours
Experimental: (§2) HS-5, HEK-293, MCF7, MDA-MB-231 and Rosi cells were seeded in 96-well optical bottom tissue culture plates (Corning, New York) at a density of 2.5×10^3 cells/well. After 24 hours, the media were changed to media containing LB-100 (Cayman Chemical Company, Ann Arbor, Michigan) or Compound 2 at various concentrations (50-0.31 μM). Control cells were given fresh media. After 48 hours the media were aspirated and plates were washed with warmed Dulbecco's phosphate-buffered saline (DPBS) with calcium and magnesium (Sigma-Aldrich, catalog #D1283). Cells were stained with 3 μM calcein-AM (AAT Bioquest, Pleasanton, California, catalog #22002) in DPBS for 30 minutes in the dark at 37° C. Plates were immediately read with a Biotek fluorescent plate reader (excitation 485 nm, emission 520 nm). The cytotoxicity assays were performed at least three times, each time with six replicates per condition.

HEK-293 cells = test: Cytotoxicity assay (calcein-AM); format: cell-based; details: Homo sapiens, HEK293; HEK-293; 48 hours; read-out: Log [μM] EC50 (converted)
Experimental: as §2

MDA-MB-231 cells [1] = test: Annexin V assay; format: cell-based, human; details: 5-20 μM, 48 hours
Experimental: (§3) MCF7, MDA-MB-231 and Rosi cells were treated with LB-100 and Compound 2 at 5-20 μM concentrations. After 48 hours, cells were lifted with Accutase and washed twice with PBS (pH 7.4) with 10% FBS. Cells were resuspended in annexin V binding buffer (10 mM HEPES (pH 7.4), 140 mM NaCl and 2.5 mM CaCl2)) and labeled with FITC-anti-Annexin V and 7-AAD (Biolegend, FITC Annexin V Apoptosis Detection Kit with 7-AAD, catalog #640922). Cell surface annexin V expression was assessed with flow cytometry.

MCF7 cells = test: Annexin V assay; format: cell-based, human; details: 5-20 μM, 48 hours
Experimental: as §3

Rosi cells [2] = test: Annexin V assay; format: cell-based, human; details: 5-20 μM, 48 hours
Experimental: as §3

Jurkat cells = test: Cytotoxicity assay (Ghost Dye 710 flow cytometry); format: cell-based; details: Homo sapiens, 48 hours
Experimental: (§4) Jurkat and THP-1 cells were seeded in 6-well plates at a density of 2.5×10^5 cells/mL. After 24 hours LCMT-li was added at various concentrations. After 48 hours, cells were pelleted and washed twice with ice-cold phosphate-buffered saline (PBS). Cells were stained with Ghost Dye™ 710 (Cytek®, Bethesda, Maryland) viability dye, 0.1 μL/mL in PBS on ice in the dark for 30 minutes. Cells were pelleted and washed twice with ice-cold PBS with 10% FBS. Cells were pelleted and fixed with 4% formaldehyde in PBS on ice for 15 minutes. Cells were pelleted and resuspended in PBS with 5% bovine serum albumin (BSA). Cells were analyzed with a Becton-Dickinson FACSymphony™ flow cytometer with at least 3 replicates; 3×10^4 cells were analyzed with each replicate for statistical significance.
(§5) Statistical analyses were performed with GraphPad Prism software (version 10.4.1). Effective concentrations that inhibited 50% of cells (EC50, log agonist versus response) were estimated with nonlinear fit curves. Absorbance values for cytotoxity assays and relative densities for Western blot assays were compared using Kruskal-Wallis analyses of variance with Dunn's correction for multiple comparisons. For flow cytometric analyses, two-way analyses of variance with Tukey's correction for multiple comparisons were used.

THP-1 cells = test: Cytotoxicity assay (Ghost Dye 710 flow cytometry); format: cell-based; details: Homo sapiens, 48 hours
Experimental: as §4, §5

MDA-MB-231 cells [3] = test: Cell cycle analysis (BrdU flow cytometry); format: cell-based, human; details: 20 μM, 24 hours
Experimental: (§6) MCF7, MDA-MB-231 and Rosi cells were seeded in 6-well tissue culture plates (Celltreat) at a density of 5×10^5 cells per well. After 24 hours, the DMEM was changed to media containing 20 μM LB-100 or Compound 2. Control cells were given fresh media. After 24 hours, cells were labeled with 50 μM bromodeoxyuridine (BrdU, BioGems, Westlake Village, California, catalog #5911439). Cells were lifted with 0.25% trypsin, 2.21 mM ethylenediaminetetraacetic acid (Corning catalog #25-053-CI) after 4 hours and fixed with 70% ethanol overnight at 4° C. Cells were pelleted and cellular DNA was denatured with HCl. After neutralization with 1 M Tris, pH 8.5, cells were labeled with FITC-anti-BrdU (Biolegend, San Diego, California, catalog #364104, 5 μL/100 μL cell suspension) and 7-aminoactinomycin-D (7-AAD, Biolegend, catalog #420404, 1 μL/100 μL cell suspension). Cells were analyzed with a Becton-Dickinson FACSymphony™ flow cytometer. Cell cycle analyses were performed three times.

Rosi cells [4] = test: Cell cycle analysis (BrdU flow cytometry); format: cell-based, human; details: 20 μM, 24 hours
Experimental: as §6

[5] = 10 μM LCMT-li with irradiation vs irradiation alone
[6] = LCMT-li monotherapy vs control cells

COC(=O)c1c(NC(=O)c2ccccc2C)sc(C(=O)Nc2cccc(C)c2)c1C [Compound 2, methyl 4-methyl-2-[(2-methylbenzoyl)amino]-5-[[(3-methylphenyl)amino]carbonyl]-3-thiophenecarboxylate]
apoptosis, necroptosis and ferroptosis (UM-SCC-49 cells): did not differ between the experimental conditions
apoptosis (annexin V) (SCC-15 cells; [5]): increased apoptosis in comparison to irradiation alone
apoptosis (annexin V) (SCC-15 cells; LCMT-li monotherapy vs control cells, 24 hours): increased apoptosis
apoptosis or ferroptosis (SCC-25 cells): did not increase apoptosis or ferroptosis
programmed cell death (UM-SCC-14a cells): did not increase programmed cell death
apoptosis (annexin V) (UM-SCC-12 cells; [6]): increased apoptosis
apoptosis (annexin V) (UM-SCC-12 cells; with irradiation vs irradiation alone): did not increase apoptosis in the presence of irradiation as compared to irradiation alone
apoptosis (annexin V) (UM-SCC-69 cells; [5]): increased apoptosis in comparison to irradiation alone
apoptosis (annexin V) (UM-SCC-69 cells; [6]): increased apoptosis
EC50 (HS-5 cells; HS5, read-out: Log [μM] EC50 (converted)): 8.71 µM
concentration at which cytotoxicity was significant (HS-5 cells): 20 µM
EC50 (HEK-293 cells): 4.68 µM
apoptosis (cell surface annexin V expression) (MDA-MB-231 cells [1]): increased cell surface annexin V expression
apoptosis (cell surface annexin V expression) (MCF7 cells): decreased cell surface annexin V
apoptosis (cell surface annexin V expression) (Rosi cells [2]): did not induce apoptosis
EC50 (Jurkat cells): 224 µM
EC50 (THP-1 cells): 10.4 µM
cell cycle effect (MDA-MB-231 cells [3]): did not change cell cycle dynamics
cell cycle effect (Rosi cells [4]): induced G0/G1 arrest

Reference: patent publication US20250320190A1, “Novel Inhibitors of Leucine Carboxyl Methyltransferase-1 (LCMT-1) and Methods of Use Thereof” (Temple University-Of The Commonwealth System of Higher …, priority 2024, published 2025)
